Experimental data: patent publication US20230081426A1, “COMPOUNDS AND METHODS FOR KRAS MODULATION AND INDICATIONS THEREFOR” (Plexxikon Inc., priority 2020, published 2023)

Experiments:
[1] = molecular target: T1, G12V-mutant human KRAS (amino acid residues 1-188) (Homo sapiens, UniProt P01116, G12V); assay: KRAS Binding Competition Assay (AlphaScreen; biotinylated KRpep-2d analogue), G12V; settings: geometric mean, read-out: KRAS GMean IC50 (uM) MUTATION: G12V
T1 construct: G12V-mutant human KRAS (amino acid residues 1-188) with FLAG tag was purified from E. coli; made in house; host or cells: E. coli

[2] = molecular target: T2, G12D-mutant human KRAS (amino acid residues 1-188) (Homo sapiens, UniProt P01116, G12D); assay: KRAS Binding Disruption Assay (AlphaScreen; biotinylated KRpep-2d analogue or RAF1-RBD), G12D; settings: KRAS G12D; geometric mean; read-out: KRAS GMean IC50 (uM) MUTATION: G12D
T2 construct: G12D or G12C-mutant human KRAS (amino acid residues 1-188) with FLAG tag; made in house; host or cells: E. coli
In short: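 Displacement format with mutant KRAS, biotinylated KRpep-2d analogue or RAF1-RBD (5-20 nM each) at pH 7.5 with 5 mM MgCl2.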

| IC50 [1] | IC50 [2] | Compound |
| --- | --- | --- |
| 0.0001 to 10 µM | 0.0001 to 10 µM | CN1C(=O)C(CC(=O)N2[C@@H]3CC[C@H]2CN(c2nc(OCC45CCCN4CCC5)nc4c(F)c(-c5cc(O)cc6ccccc56)ccc24)C3)N(C)C1=O (stereo partly drawn) [P-0386, 5-(2-((1R,5S)-3-(8-fluoro-7-(3-hydroxynaphthalen-1-yl)-2-((tetrahydro-1H-pyrrolizin-7a(5H)-yl)methoxy)quinazolin-4-yl)-3,8-diazabicyclo[3.2.1]octan-8-yl)-2-oxoethyl)-1,3-dimethylimidazolidine-2,4-dione] |
| 0.0001 to 10 µM | 0.0001 to 10 µM | Cc1[nH][nH]c(=O)c1CC(=O)N1[C@@H]2CC[C@H]1CN(c1nc(OCC34CCCN3CCC4)nc3c(F)c(-c4cc(O)cc5ccccc45)ccc13)C2 [P-0388, 4-(2-((1R,5S)-3-(8-fluoro-7-(3-hydroxynaphthalen-1-yl)-2-((tetrahydro-1H-pyrrolizin-7a(5H)-yl)methoxy)quinazolin-4-yl)-3,8-diazabicyclo[3.2.1]octan-8-yl)-2-oxoethyl)-5-methyl-1,2-dihydro-3H-pyrazol-3-one] |
| 10 to 100 µM | 0.0001 to 10 µM | O=[N+]([O-])c1ccc(COc2nc(N3C[C@H]4CC[C@@H](C3)N4)c3cc(Cl)c(-c4c(O)cccc4F)c(F)c3n2)cc1 [P-0389, 2-(4-((1R,5S)-3,8-diazabicyclo[3.2.1]octan-3-yl)-6-chloro-8-fluoro-2-((4-nitrobenzyl)oxy)quinazolin-7-yl)-3-fluorophenol] |
| 0.0001 to 10 µM | 0.0001 to 10 µM | CN(C)c1cccc(Oc2nc(N3C[C@H]4CC[C@@H](C3)N4)c3cc(Cl)c(-c4c(O)cccc4F)c(F)c3n2)c1 [P-0390, 2-(4-((1R,5S)-3,8-diazabicyclo[3.2.1]octan-3-yl)-6-chloro-2-(3-(dimethylamino)phenoxy)-8-fluoroquinazolin-7-yl)-3-fluorophenol] |
| 0.0001 to 10 µM | 0.0001 to 10 µM | CN(C)c1ccc(Nc2nc(N3C[C@H]4CC[C@@H](C3)N4)c3cc(Cl)c(-c4c(O)cccc4F)c(F)c3n2)cc1 [P-0391, 2-(4-((1R,5S)-3,8-diazabicyclo[3.2.1]octan-3-yl)-6-chloro-2-((4-(dimethylamino)phenyl)amino)-8-fluoroquinazolin-7-yl)-3-fluorophenol] |
| 10 to 100 µM | 0.0001 to 10 µM | Oc1cccc(F)c1-c1c(Cl)cc2c(N3C[C@H]4CC[C@@H](C3)N4)nc(OCC34CCCN3CCC4)nc2c1F [P-0392, 2-(4-((1R,5S)-3,8-diazabicyclo[3.2.1]octan-3-yl)-6-chloro-8-fluoro-2-((tetrahydro-1H-pyrrolizin-7a(5H)-yl)methoxy)quinazolin-7-yl)-3-fluorophenol] |
| 0.0001 to 10 µM | 0.0001 to 10 µM | CN1CCC[C@H]1COc1nc(N2C[C@H]3CC[C@@H](C2)N3C(=O)CCCn2ccnc2)c2ccc(-c3cc(O)cc4ccccc34)c(F)c2n1 [P-0393, 1-((1R,5S)-3-(8-fluoro-7-(3-hydroxynaphthalen-1-yl)-2-(((S)-1-methylpyrrolidin-2-yl)methoxy)quinazolin-4-yl)-3,8-diazabicyclo[3.2.1]octan-8-yl)-4-(1H-imidazol-1-yl)butan-1-one] |
| 0.0001 to 10 µM | 0.0001 to 10 µM | C[C@H](O)C(=O)N1[C@@H]2CC[C@H]1CN(c1nc(OC[C@@H]3CCCN3C)nc3c(F)c(-c4cc(O)cc5ccccc45)ccc13)C2 [P-0394, (S)-1-((1R,5S)-3-(8-fluoro-7-(3-hydroxynaphthalen-1-yl)-2-(((S)-1-methylpyrrolidin-2-yl)methoxy)quinazolin-4-yl)-3,8-diazabicyclo[3.2.1]octan-8-yl)-2-hydroxypropan-1-one] |
| 0.0001 to 10 µM | 0.0001 to 10 µM | C[C@@H](O)C(=O)N1[C@@H]2CC[C@H]1CN(c1nc(OC[C@@H]3CCCN3C)nc3c(F)c(-c4cc(O)cc5ccccc45)ccc13)C2 [P-0395, (R)-1-((1R,5S)-3-(8-fluoro-7-(3-hydroxynaphthalen-1-yl)-2-(((S)-1-methylpyrrolidin-2-yl)methoxy)quinazolin-4-yl)-3,8-diazabicyclo[3.2.1]octan-8-yl)-2-hydroxypropan-1-one] |
